# Values quoted from earlier work, collected in patent US20260284070A1, “Ophthalmic Solution of Brinzolamide” (Micro Labs Limited, priority 2023, published 2026).
# Conditions: physiological pH (pH 6.0 to 7.5)
smiles,measurement,value
"CCN[C@H]1CN(CCCOC)S(=O)(=O)c2sc(S(N)(=O)=O)cc21 [Brinzolamide, (R)-(+)-4-Ethylamino-2-(3-methoxypropyl)-3,4-dihydro-2H-thieno[3,2-e]-1,2-thiazine-6-sulfonamide-1,1-dioxide]",Solubility,very limited solubility
